Source: US20140288040A1, “SUBSTITUTED BENZYLAMINE COMPOUNDS, THEIR USE IN MEDICINE, AND IN PARTICULAR THE TREATMENT OF HEPATITIS C VIRUS (HCV) INFECTION” (ASTEX THERAPEUTICS LIMITED, priority 2011, published 2014)
Where a name gives a salt, the structure may show the parent alone. Read-outs that look alike come from different tables or passages of the source.

Target: T1, HCV NS3 protease (full length NS34a) (Hepatitis C virus genotype 1b, UniProt P26663)
T1 construct: The protease activity of the full length NS34a was measured using a FRET-based assay; made in house
Test: HCV NS3 protease assay (FRET, full length NS34a)
Format: biochemical
Description: The HCV NS3 protease functions have been extensively studied and are considered as potential targets for antiviral therapy: see for example the many references listed in the introductory section of this application. Therefore, the activity of the compounds of the invention as anti-HCV agents was assessed using a full length HCV NS3 protease.
The protease activity of the full length NS34a was measured using a FRET-based assay utilizing a peptide substrate derived from the NS4AB cleavage site (Anaspec) and labelled at one end with a quencher (QXL520) and at the other with a fluorophore (5-FAMsp). NS34a (produced in-house by literature methods) was incubated with test compounds and peptide substrate in 50 mM Tris pH8, 20 mM DTT, 1% CHAPS, 10% glycerol and 5% DMSO. The reaction was followed by monitoring the change in fluorescence on a Molecular Devices Gemini plate reader for 30 minutes at room temperature. Initial rates were calculated from the progress curves using SoftMax Pro (Molecular Devices). IC50 values were then calculated from replicate curves using Prism GraphPad software.

[1] = IC50 values of 10-150 μM against the protease activity of the full length NS34a, or at least 40% inhibition of protease activity at a concentration of 100 μM
[2] = protease activity of full length NS34a, FRET peptide substrate, read-out: Activity IC50

T1 sequence (P26663 1658-1711): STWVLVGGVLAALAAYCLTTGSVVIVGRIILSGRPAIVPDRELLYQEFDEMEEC
T1 sequence (P26663 1027-1657): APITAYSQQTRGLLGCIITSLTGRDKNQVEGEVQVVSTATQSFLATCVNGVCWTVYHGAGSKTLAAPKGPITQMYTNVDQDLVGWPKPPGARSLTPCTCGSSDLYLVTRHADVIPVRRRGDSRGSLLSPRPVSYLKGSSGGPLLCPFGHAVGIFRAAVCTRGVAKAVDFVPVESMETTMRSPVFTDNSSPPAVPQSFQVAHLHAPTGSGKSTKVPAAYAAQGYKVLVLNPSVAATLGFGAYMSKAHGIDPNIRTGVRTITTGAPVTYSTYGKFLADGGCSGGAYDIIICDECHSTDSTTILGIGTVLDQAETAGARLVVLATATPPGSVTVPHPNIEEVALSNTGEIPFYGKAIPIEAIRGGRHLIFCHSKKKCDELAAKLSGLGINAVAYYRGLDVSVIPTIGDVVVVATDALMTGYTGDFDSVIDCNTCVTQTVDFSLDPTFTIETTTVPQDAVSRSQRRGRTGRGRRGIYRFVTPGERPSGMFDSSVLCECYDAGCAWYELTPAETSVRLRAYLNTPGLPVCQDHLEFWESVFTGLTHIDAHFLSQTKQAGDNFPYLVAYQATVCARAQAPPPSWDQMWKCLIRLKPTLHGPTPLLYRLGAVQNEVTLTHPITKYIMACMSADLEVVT

Compound	IC50 [1] [µM]	IC50 [2] [µM]
CC[C@@H](N[C@@H](C)CC(=O)NCC(=O)OC)c1ccc(Cl)c(Oc2ccccc2)c1F [Example 159]	10 to 150	
CC[C@@H](N[C@H](C)CC(=O)N(C)OC)c1ccc(Cl)c(Oc2ccccc2)c1F [Example 160]	10 to 150	
CC[C@@H](N[C@@H](C)CC(=O)N(C)OC)c1ccc(Cl)c(Oc2ccccc2)c1F [Example 161]	10 to 150	
CC[C@@H](N)c1ccc(Cl)c(Oc2cccc(C(F)(F)F)c2)c1F [Example 162]		6.8
CC[C@@H](N)c1ccc(Cl)c(Oc2ccc(C#N)c(F)c2)c1F [Example 166]		2.1
CC[C@@H](N)c1ccc(Cl)c(Oc2ccnc(Cl)c2)c1F [Example 167]		6.1
CC[C@@H](N)c1ccc(Cl)c(Oc2ccnc(C)c2)c1F [Example 168]		3.7
CC[C@@H](N)c1ccc(Cl)c(Oc2ccncc2)c1F [Example 169]		4.8
CC[C@@H](N)c1ccc(Cl)c(Oc2cccc(S(C)(=O)=O)c2)c1F [Example 170]		2.3
CC[C@@H](N)c1ccc(Cl)c(Oc2cccc(NC(=O)NCC(F)(F)F)c2)c1F [Example 171, 1-{3-[3-((R)-1-Amino-propyl)-6-chloro-2-fluoro-phenoxy]-phenyl}-3-(2,2,2-trifluoro-ethyl)-urea.hydrochloride]		7.7
CC[C@@H](N)c1ccc(Cl)c(Oc2cccc(C(N)=O)c2)c1F [Example 172]		3.7
CC[C@@H](N)c1ccc(Cl)c(Oc2cccc(CNC(C)=O)c2)c1F [Example 173]		3.5
CC[C@@H](N)c1ccc(Cl)c(Oc2ccc(S(C)(=O)=O)cc2)c1F [Example 174]		6.2
CC[C@@H](N)c1ccc(Cl)c(Oc2ccc(C(F)(F)F)cc2)c1F [Example 175]	10 to 150	
CC[C@@H](N)c1ccc(Cl)c(Oc2ccc(Cl)cc2)c1F [Example 176]		1.7
CC[C@@H](N[C@H](C)CC(=O)NCC(N)=O)c1ccc(Cl)c(Oc2ccccc2)c1F [Example 177]	10 to 150	
CC[C@@H](N)c1ccc(Cl)c(Oc2ccc(CC#N)cc2)c1F [Example 179]		0.61
CC[C@@H](N)c1ccc(Cl)c(Oc2ccc(C)nc2)c1F [Example 180]		3.7
CC[C@@H](N)c1ccc(Cl)c(Oc2ccc(-c3nnc(C)o3)cc2)c1F [Example 181]		2.3
CC[C@@H](N)c1ccc(Cl)c(Oc2ccc(N(C)C)cc2)c1F [Example 182]		5.7
CC[C@@H](N)c1ccc(Cl)c(Oc2ccc(CO)cc2)c1F [Example 183]		1.2
CC[C@@H](N)c1ccc(Cl)c(Oc2ccc(C(C)OC)cc2)c1F (stereo partly drawn) [Example 184]		6.1

Compound	IC50 [1] [µM]	IC50 [2] [µM]
CC[C@@H](N[C@H](C)CC(N)=O)c1ccc(Cl)c(Oc2ccc(C#N)cc2)c1F [Example 185]		1.5
CCc1ccc(Oc2c(Cl)ccc([C@H](N)CC)c2F)cc1 [Example 187]		6.9
CC[C@@H](N)c1ccc(Cl)c(Oc2ccc(C(C)O)cc2)c1F (stereo partly drawn) [Example 188]		2.7
CC[C@@H](N)c1ccc(Cl)c(Oc2ccc(S(=O)(=O)NC)cc2)c1F [Example 189]		8.6
CC[C@@H](N)c1ccc(Cl)c(Oc2ccc(F)c(COC(=O)NCC3CC3)c2)c1F [Example 190, Cyclopropylmethyl-carbamic acid 5-[3-((R)-1-amino-propyl)-6-chloro-2-fluoro-phenoxy]-2-fluoro-benzyl ester.hydrochloride]		1.8
CC[C@@H](N)c1ccc(Cl)c(Oc2cccc(C(=O)NCCC#N)c2)c1F [Example 191]	10 to 150	
CC[C@@H](N)c1ccc(Cl)c(Oc2ccc(C3(C#N)CC3)cc2)c1F [Example 192]		3.1
CC[C@@H](N)c1ccc(Cl)c(Oc2ccc3c(c2)CCO3)c1F [Example 193]		0.96
CC[C@@H](N)c1ccc(Cl)c(Oc2ccc(C3(CO)CC3)cc2)c1F [Example 194]		3.1
CC[C@@H](N)c1ccc(Cl)c(Oc2ccc([N+](=O)[O-])cc2)c1F [Example 197]		2.6
CC[C@@H](N)c1ccc(Cl)c(Oc2ccc(CNC(C)=O)cc2)c1F [Example 198]		1.6
CC[C@@H](N)c1ccc(Cl)c(Oc2cccc(C#N)c2)c1F [Example 199]		3.8
CC[C@@H](N[C@H](C)CC(N)=O)c1ccc(Cl)c(Oc2ccc([N+](=O)[O-])cc2)c1F [Example 202]		5.4
CC[C@@H](N)c1ccc(Cl)c(Oc2ccc(-c3cnco3)cc2)c1F [Example 203, (R)-1-[4-Chloro-2-fluoro-3-(4-oxazol-5-yl-phenoxy)-phenyl]-propylamine.hydrochloride]		1.6
CC[C@@H](N)c1ccc(Cl)c(Oc2ccc(/C=N/O)cc2)c1F [Example 204, 4-[3-((R)-1-Amino-propyl)-6-chloro-2-fluoro-phenoxy]-benzaldehyde oxime.hydrochloride]		0.72
CC[C@@H](N[C@H](C)CC(=O)N[C@@H](C)CO)c1ccc(Cl)c(Oc2ccccc2)c1F [Example 205]	10 to 150	
CC[C@@H](N[C@@H](C)CC(=O)N[C@@H](C)CO)c1ccc(Cl)c(Oc2ccccc2)c1F [Example 206]	10 to 150	
CC[C@@H](N[C@H](C)CC(=O)N[C@H](C)CO)c1ccc(Cl)c(Oc2ccccc2)c1F [Example 208]		3.4
CC[C@@H](N[C@H](C)CC(N)=O)c1ccc(Cl)c(Oc2ccc(C#N)c(OC)c2)c1F [Example 209]		4.9
CC[C@@H](N[C@H](C)CC(N)=O)c1ccc(Cl)c(Oc2ccc(C#N)c(F)c2)c1F [Example 214]	10 to 150	
CC[C@@H](N[C@H](C)CC(N)=O)c1ccc(Cl)c(Oc2cccc(CNS(C)(=O)=O)c2)c1F [Example 217]	10 to 150	
CC[C@@H](N)c1ccc(Cl)c(Oc2cc[nH]c(=O)c2)c1F [Example 218, 4-[3-((R)-1-Amino-propyl)-6-chloro-2-fluoro-phenoxy]-1H-pyridin-2-one. hydrochloride]		8.2

Compound	IC50 [1] [µM]	IC50 [2] [µM]
CC[C@@H](N[C@H](C)CC(N)=O)c1ccc(Cl)c(Oc2ccc(-c3cnco3)cc2)c1F [Example 220]		4.6
CC[C@@H](N)c1ccc(Cl)c(Oc2ccc(F)c(C(N)=O)c2)c1F [Example 227, 5-[3-((R)-1-Amino-propyl)-6-chloro-2-fluoro-phenoxy]-2-fluoro-benzamide (R isomer).hydrochloride]		2.2
CC[C@@H](N)c1ccc(Cl)c(Oc2ccc(-c3cnco3)c(C)c2)c1F [Example 228]		1.6
C#Cc1ccc(Oc2c(Cl)ccc([C@@H](CC)N[C@H](C)CC(N)=O)c2F)cc1 [Example 229]		1.7
CC[C@@H](N)c1ccc(Cl)c(Oc2ccc(CO)nc2)c1F [Example 231]	10 to 150	
CC[C@@H](N[C@H](C)CC(N)=O)c1ccc(Cl)c(Oc2ccc3c(c2)OCC3)c1F [Example 232]		1.8
CC[C@@H](N[C@H](C)CC(N)=O)c1ccc(Cl)c(Oc2ccc(C#N)nc2)c1F [Example 247]	10 to 150	
CC[C@@H](N[C@H](C)CC(N)=O)c1ccc(Cl)c(Oc2ccc(C(N)=O)nc2)c1F [Example 248, 5-{3-[(R)-1-((R)-2-Carbamoyl-1-methyl-ethylamino)-propyl]-6-chloro-2-fluoro-phenoxy}-pyridine-2-carboxylic acid amide.hydrochloride]	10 to 150	
CC[C@@H](N[C@H](C)CC(N)=O)c1ccc(Cl)c(Oc2ccc(N)c(OC)c2)c1F [Example 254]	10 to 150	
C[C@H](CC(N)=O)N[C@H](CC1CCOCC1)c1ccc(Cl)c(Oc2ccccc2)c1F [Example 257]	10 to 150	
C[C@H](CC(N)=O)N[C@@H](CC1CCOCC1)c1ccc(Cl)c(Oc2ccccc2)c1F [Example 258]	10 to 150	
CC[C@@H](N[C@H](C)CC(N)=O)c1ccc(Cl)c(Oc2ccc(N)c(C(F)(F)F)c2)c1F [Example 259]	10 to 150	
CC[C@H](N)c1ccc(Cl)c(Oc2ccccc2)c1Cl [Example 261, (S)-1-(2,4-Dichloro-3-phenoxy-phenyl)-propylamine.hydrochloride]		1.2
CC[C@@H](N)c1ccc(Cl)c(Oc2ccccc2)c1Cl [Example 262]		5.9
CC[C@@H](N[C@H](C)CC(=O)NC[C@@H](C)O)c1ccc(Cl)c(Oc2ccccc2)c1F [Example 268]	10 to 150	
CC[C@@H](N[C@H](C)CC(=O)NC(C)(C)CO)c1ccc(Cl)c(Oc2ccccc2)c1F [Example 269]	10 to 150	
CC[C@@H](N)c1ccc(Cl)c(Oc2ccc3c(c2)C(C)(C)CN3)c1F [Example 270]		1.6
N[C@H](CC1CCOCC1)c1ccc(Cl)c(Oc2ccccc2)c1F [Example 276A, (R)-1-(4-Chloro-2-fluoro-3-phenoxy-phenyl)-2-(tetrahydro-pyran-4-yl)-ethylamine. hydrochloride]	10 to 150	
N[C@@H](CC1CCOCC1)c1ccc(Cl)c(Oc2ccccc2)c1F [Example 276B, (S)-1-(4-Chloro-2-fluoro-3-phenoxy-phenyl)-2-(tetrahydro-pyran-4-yl)-ethylamine.hydrochloride]	10 to 150	
C[C@H](CC(=O)NCCN)N[C@H](CC1CCOCC1)c1ccc(Cl)c(Oc2ccccc2)c1F [Example 278]		3.9
CS(=O)(=O)Nc1cccc(Oc2c(F)ccc(CN[C@H]3CC[C@@H](N)CC3)c2F)c1 [Example 285]		2.4
CS(=O)(=O)Nc1cccc(Oc2c(F)ccc(CNc3ccnc(N)c3)c2F)c1 [Example 286]		3
